In ChEMBL document CHEMBL5550196, “Design, synthesis, and anticancer assessment of structural analogues of (E)-1-((3,4,5-trimethoxybenzylidene)amino)-4-(3,4,5-trimethoxyphenyl)imidazo[1,2-a]quinoxaline-2-carbonitrile (6b), an imidazo[1,2-a]quinoxaline-based non-covalent EGFR inhibitor” (RSC Med Chem, 2024):
Activity calls are given as the source filed them. No cut-off for these calls is given here.

What was measured:
[1] = molecular target: T1, Epidermal growth factor receptor (Homo sapiens, UniProt P00533); conditions: dose 200.0 nM, time 2.0 hrs
A549 [2] = assay: Downregulation of KRAS gene expression in human A549 cells by SYBR green dye based qPCR analysis; type: functional, cell-based
A549 [3] = assay: Inhibition of oxidative stress in human A549 cells assessed as reduction in ROS production at 1 to 5 uM by DCFH-DA staining based microplate reader analysis; type: functional, cell-based; conditions: dose 1-5 µM
[4] = molecular target: T1, Epidermal growth factor receptor; assay: Inhibition of EGFR (unknown origin) mediated phosphorylation incubated for 2 hrs in presence of ATP by Z-LYTE assay
A549 [5] = assay: Induction of mitochondrial membrane hyperpolarization in human A549 cells at 1 to 5 uM by JC-1 staining based fluorescence microplate reader assay; type: functional, cell-based; conditions: dose 1-5 µM
A549 [6] = assay: Downregulation of MAP2K gene expression in human A549 cells by SYBR green dye based qPCR analysis; type: functional, cell-based
MDA-MB-231 = assay: cells; conditions: Homo sapiens, MDA-MB-231, 48 h
MCF7 = assay: cells; conditions: Homo sapiens, MCF7, 48 h
A549 [7] = assay: cells; conditions: Homo sapiens, A549, 48 h
A549 [8] = assay: Downregulation of EGFR gene expression in human A549 cells by SYBR green dye based qPCR analysis; type: functional, cell-based

T1 sequence (P00533 whole entry): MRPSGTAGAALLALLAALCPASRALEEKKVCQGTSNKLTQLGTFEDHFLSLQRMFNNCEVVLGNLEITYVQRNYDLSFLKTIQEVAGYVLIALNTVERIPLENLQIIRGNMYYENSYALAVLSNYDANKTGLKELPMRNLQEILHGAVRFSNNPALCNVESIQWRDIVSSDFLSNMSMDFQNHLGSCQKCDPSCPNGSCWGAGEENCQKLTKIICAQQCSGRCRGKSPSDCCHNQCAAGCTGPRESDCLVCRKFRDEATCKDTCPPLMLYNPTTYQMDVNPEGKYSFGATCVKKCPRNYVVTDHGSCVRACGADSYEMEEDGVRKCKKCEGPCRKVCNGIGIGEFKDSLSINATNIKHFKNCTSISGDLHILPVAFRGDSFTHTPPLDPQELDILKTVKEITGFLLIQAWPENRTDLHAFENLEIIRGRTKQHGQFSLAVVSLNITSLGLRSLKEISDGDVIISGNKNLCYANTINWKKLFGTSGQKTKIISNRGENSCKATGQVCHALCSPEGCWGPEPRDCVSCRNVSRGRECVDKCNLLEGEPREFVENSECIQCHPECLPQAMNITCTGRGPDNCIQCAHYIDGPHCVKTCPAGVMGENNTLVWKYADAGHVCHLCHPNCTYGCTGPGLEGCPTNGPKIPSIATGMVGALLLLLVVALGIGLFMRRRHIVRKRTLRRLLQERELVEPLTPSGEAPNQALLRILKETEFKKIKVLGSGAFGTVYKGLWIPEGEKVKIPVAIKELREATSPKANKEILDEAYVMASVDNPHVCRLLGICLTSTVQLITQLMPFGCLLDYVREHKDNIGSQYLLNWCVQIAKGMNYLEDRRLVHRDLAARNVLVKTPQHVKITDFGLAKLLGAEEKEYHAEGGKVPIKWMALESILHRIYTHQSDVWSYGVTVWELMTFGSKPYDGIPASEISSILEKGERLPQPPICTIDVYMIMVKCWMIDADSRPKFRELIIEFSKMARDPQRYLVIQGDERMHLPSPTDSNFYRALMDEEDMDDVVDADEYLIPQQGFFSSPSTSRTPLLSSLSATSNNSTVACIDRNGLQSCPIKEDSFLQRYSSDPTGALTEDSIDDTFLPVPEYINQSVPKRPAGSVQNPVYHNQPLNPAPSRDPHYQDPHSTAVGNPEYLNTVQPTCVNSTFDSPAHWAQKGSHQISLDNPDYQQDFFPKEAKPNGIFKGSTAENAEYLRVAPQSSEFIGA

| inhibition [1] | IC50 [4] | IC50 (MDA-MB-231) | IC50 (MCF7) | IC50 (A549 [7]) | SMILES | Activity (A549 [2]) | inhibition (A549 [3]) | Activity (A549 [5]) | Activity (A549 [6]) | Activity (A549 [8]) |
| --- | --- | --- | --- | --- | --- | --- | --- | --- | --- | --- |
|  |  | 8.66 µM | 23.9 µM | 4.27 µM | COc1cc(-c2nc3ccccc3n3c(/N=C/c4cccnc4)c(C#N)nc23)cc(OC)c1OC |  |  |  |  |  |
|  |  | 6.41 µM | 24 µM | 13.2 µM | COc1cc(-c2nc3ccccc3n3c(/N=C/c4ccc(N(C)C)cc4)c(C#N)nc23)cc(OC)c1OC |  |  |  |  |  |
|  |  | 5.94 µM | 3.82 µM | 4.43 µM | COc1cc(-c2nc3ccccc3n3c(/N=C/c4ccc(Cl)cc4)c(C#N)nc23)cc(OC)c1OC |  |  |  |  |  |
|  |  | 8.88 µM | 13.1 µM | 16.5 µM | COc1cc(-c2nc3ccccc3n3c(/N=C/c4ccncc4)c(C#N)nc23)cc(OC)c1OC |  |  |  |  |  |
|  |  | > 25 µM | 14.3 µM | 1.34 µM | COc1cc(-c2nc3ccccc3n3c(/N=C/c4ccsc4)c(C#N)nc23)cc(OC)c1OC | Active | Active | Active | Active | Active |

Further lines, the molecule ahead of its results:

| SMILES | inhibition [1] | IC50 [4] | IC50 (MDA-MB-231) | IC50 (MCF7) | IC50 (A549 [7]) | Activity (A549 [2]) | inhibition (A549 [3]) | Activity (A549 [5]) | Activity (A549 [6]) | Activity (A549 [8]) |
| --- | --- | --- | --- | --- | --- | --- | --- | --- | --- | --- |
| COc1cccc(/C=N/c2c(C#N)nc3c(-c4cc(OC)c(OC)c(OC)c4)nc4ccccc4n23)c1 | > 50% | 0.0759 µM | 5.77 µM | 13.6 µM | 3.53 µM | Active | Active | Active | Active | Active |
| C#Cc1cccc(Nc2ncnc3cc(OCCOC)c(OCCOC)cc23)c1 |  |  |  |  |  | Active |  |  | Active | Active |
| COc1cc(-c2nc3ccccc3n3c(/N=C/c4c[nH]c5ccccc45)c(C#N)nc23)cc(OC)c1OC |  |  | > 25 µM | 8.99 µM | > 25 µM |  |  |  |  |  |
| COc1cc(-c2nc3ccccc3n3c(/N=C/c4cc(F)ccc4[N+](=O)[O-])c(C#N)nc23)cc(OC)c1OC |  |  | 11.4 µM | 9.99 µM | 3.25 µM |  |  |  |  |  |
